Data: paper PMC5715595 (British Journal of Pharmacology, 2017)
Like-named read-outs stand apart in the source and are kept apart here.

Key:
KV4.3 = target: T1, KV4.3 (Homo sapiens, UniProt Q9UK17); experiment: Whole-cell patch clamp on KV4.3 (Ito); type: cell-based; conditions: read-out: Reference compound % inhibition
T1 construct: expressed in transfected cells
T1 sequence (Q9UK17 1-655): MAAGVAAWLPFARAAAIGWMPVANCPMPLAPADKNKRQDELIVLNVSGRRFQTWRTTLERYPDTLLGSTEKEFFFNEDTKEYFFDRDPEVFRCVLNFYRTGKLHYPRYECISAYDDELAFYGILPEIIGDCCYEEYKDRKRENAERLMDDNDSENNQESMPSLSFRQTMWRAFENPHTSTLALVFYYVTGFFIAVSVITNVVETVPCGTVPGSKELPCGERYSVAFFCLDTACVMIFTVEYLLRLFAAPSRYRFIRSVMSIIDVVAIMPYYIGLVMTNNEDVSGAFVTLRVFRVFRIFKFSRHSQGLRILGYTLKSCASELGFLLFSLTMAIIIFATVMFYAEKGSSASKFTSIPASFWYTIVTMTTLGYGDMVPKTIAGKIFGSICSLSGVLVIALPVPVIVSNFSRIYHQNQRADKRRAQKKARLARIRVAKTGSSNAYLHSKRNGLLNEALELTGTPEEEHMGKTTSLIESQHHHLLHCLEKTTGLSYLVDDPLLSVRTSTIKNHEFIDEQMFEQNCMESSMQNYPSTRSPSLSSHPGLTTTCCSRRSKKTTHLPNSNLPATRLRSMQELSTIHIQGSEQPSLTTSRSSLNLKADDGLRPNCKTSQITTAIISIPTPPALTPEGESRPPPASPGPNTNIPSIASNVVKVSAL
Procedure: (§1) and CiPA Initiative Studies
(§2) =============================================================
(§3) In vitro studies on other ion channels […]
(§4) through NaV1.5, KV4.3, KV7.1/mink, Kir2.1, KV1.5, CaV1.2 and CaV3.2 channels.
(§5) 35-mm dish culture in the conditions mentioned in standard cell culture conditions. Experiments were performed with a cell density enabling isolated cells for patch clamping. Cells were continuously superfused with extracellular medium (1-2 mL∙minute-1) at room temperature.
(§6) D-glucose 10, HEPES 10 and the final pH adjusted to 7.4±0.02 with NaOH for recording NaV1.5, KV4.3, KV7.1/mink, Kir2.1, KV1.5 and CaV3.2 currents. It was (in mM): NaCl 110, KCl 4, BaCl2 20, MgCl2 1, D-glucose 20, HEPES 10 and the final pH adjusted to 7.4 ± 0.02 with NaOH for recording the CaV1.2 current. Compositions of the intracellular solution to fill the pipette are […]
(§7) Composition of intracellular solutions used to fill pipette to record currents through NaV1.5, KV4.3, KV7.1/mink, Kir2.1, KV1.5, CaV1.2 and CaV3.2 channels
(§8) Solution to fill the pipette (mM)
(§9) Creatine-phospho kinase 50 U∙mL-1
(§10) After formation of a Gigaohm seal between the patch electrodes and individual cells (pipette resistance range: 2.0 MΩ - 7.0 MΩ; seal resistance range: > 1 GΩ) the cell membrane across the pipette tip was ruptured to assure electrical access to the cell interior (whole-cell patch-configuration). In case the quality of the seal was poor, the process of seal formation was repeated with a different cell and a new pipette. As soon as a stable seal was established outward tail currents were measured upon pulses described in the Table S2. If current density was judged to be too low for measurement, another cell was recorded. […]
(§11) voltage stimulation protocol indicated in the next table continuously run until the steady-state level of block was reached.
(§12) Stimulation conditions used to record currents through NaV1.5, KV4.3, KV7.1/mink, Kir2.1, KV1.5, CaV1.2 and CaV3.2 channels
(§13) Ion channel Holding potential Pulse / duration Frequency Reference compound […]
(§14) (resting / fast / slow sweeps at one (10 mM) inactivated concentration)

late sodium current = tested on: late sodium current; design: method as in Johannesen et al., 2016; conditions: at the concentrations that caused approximately 20 ms shortening of QTc; ref Johannesen et al., 2016; cited from earlier work
Kir2.1 = target: T2, Kir2.1 (Homo sapiens, UniProt P63252); experiment: Whole-cell patch clamp on Kir2.1 (IK1); type: cell-based; conditions: Kir2.1 IK1; 10 μM
T2 construct: expressed in transfected cells
T2 sequence (P63252 1-427): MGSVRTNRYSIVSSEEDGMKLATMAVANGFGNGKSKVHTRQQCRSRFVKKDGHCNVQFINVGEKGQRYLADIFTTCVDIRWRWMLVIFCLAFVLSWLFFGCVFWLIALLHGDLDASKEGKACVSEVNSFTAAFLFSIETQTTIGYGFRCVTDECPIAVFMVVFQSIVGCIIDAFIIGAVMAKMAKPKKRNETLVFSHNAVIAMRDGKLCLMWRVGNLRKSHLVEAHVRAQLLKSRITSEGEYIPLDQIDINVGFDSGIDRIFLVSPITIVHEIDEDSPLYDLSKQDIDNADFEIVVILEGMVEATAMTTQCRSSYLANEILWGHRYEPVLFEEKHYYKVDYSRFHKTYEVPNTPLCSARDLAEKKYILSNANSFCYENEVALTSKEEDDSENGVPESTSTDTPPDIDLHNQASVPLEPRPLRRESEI
Procedure: as §1, §2, §3, §4, §5, §6, §7, §8, §9, §10, §11, §12, §13, §14

KV7.1/mink = target: T3, KV7.1/mink (Homo sapiens, UniProt P51787); experiment: Whole-cell patch clamp on KV7.1/mink (IKs); type: cell-based; conditions: read-out: Reference compound % inhibition
T3 construct: expressed in transfected cells
Procedure: as §1, §2, §3, §4, §5, §6, §7, §8, §9, §10, §11, §12, §13, §14

CaV3.2 = target: T4, CaV3.2 (Homo sapiens, UniProt O95180); experiment: Whole-cell patch clamp on CaV3.2 (ICaT); type: cell-based; conditions: read-out: Reference compound % inhibition
T4 construct: expressed in transfected cells
T4 sequence (O95180 whole entry): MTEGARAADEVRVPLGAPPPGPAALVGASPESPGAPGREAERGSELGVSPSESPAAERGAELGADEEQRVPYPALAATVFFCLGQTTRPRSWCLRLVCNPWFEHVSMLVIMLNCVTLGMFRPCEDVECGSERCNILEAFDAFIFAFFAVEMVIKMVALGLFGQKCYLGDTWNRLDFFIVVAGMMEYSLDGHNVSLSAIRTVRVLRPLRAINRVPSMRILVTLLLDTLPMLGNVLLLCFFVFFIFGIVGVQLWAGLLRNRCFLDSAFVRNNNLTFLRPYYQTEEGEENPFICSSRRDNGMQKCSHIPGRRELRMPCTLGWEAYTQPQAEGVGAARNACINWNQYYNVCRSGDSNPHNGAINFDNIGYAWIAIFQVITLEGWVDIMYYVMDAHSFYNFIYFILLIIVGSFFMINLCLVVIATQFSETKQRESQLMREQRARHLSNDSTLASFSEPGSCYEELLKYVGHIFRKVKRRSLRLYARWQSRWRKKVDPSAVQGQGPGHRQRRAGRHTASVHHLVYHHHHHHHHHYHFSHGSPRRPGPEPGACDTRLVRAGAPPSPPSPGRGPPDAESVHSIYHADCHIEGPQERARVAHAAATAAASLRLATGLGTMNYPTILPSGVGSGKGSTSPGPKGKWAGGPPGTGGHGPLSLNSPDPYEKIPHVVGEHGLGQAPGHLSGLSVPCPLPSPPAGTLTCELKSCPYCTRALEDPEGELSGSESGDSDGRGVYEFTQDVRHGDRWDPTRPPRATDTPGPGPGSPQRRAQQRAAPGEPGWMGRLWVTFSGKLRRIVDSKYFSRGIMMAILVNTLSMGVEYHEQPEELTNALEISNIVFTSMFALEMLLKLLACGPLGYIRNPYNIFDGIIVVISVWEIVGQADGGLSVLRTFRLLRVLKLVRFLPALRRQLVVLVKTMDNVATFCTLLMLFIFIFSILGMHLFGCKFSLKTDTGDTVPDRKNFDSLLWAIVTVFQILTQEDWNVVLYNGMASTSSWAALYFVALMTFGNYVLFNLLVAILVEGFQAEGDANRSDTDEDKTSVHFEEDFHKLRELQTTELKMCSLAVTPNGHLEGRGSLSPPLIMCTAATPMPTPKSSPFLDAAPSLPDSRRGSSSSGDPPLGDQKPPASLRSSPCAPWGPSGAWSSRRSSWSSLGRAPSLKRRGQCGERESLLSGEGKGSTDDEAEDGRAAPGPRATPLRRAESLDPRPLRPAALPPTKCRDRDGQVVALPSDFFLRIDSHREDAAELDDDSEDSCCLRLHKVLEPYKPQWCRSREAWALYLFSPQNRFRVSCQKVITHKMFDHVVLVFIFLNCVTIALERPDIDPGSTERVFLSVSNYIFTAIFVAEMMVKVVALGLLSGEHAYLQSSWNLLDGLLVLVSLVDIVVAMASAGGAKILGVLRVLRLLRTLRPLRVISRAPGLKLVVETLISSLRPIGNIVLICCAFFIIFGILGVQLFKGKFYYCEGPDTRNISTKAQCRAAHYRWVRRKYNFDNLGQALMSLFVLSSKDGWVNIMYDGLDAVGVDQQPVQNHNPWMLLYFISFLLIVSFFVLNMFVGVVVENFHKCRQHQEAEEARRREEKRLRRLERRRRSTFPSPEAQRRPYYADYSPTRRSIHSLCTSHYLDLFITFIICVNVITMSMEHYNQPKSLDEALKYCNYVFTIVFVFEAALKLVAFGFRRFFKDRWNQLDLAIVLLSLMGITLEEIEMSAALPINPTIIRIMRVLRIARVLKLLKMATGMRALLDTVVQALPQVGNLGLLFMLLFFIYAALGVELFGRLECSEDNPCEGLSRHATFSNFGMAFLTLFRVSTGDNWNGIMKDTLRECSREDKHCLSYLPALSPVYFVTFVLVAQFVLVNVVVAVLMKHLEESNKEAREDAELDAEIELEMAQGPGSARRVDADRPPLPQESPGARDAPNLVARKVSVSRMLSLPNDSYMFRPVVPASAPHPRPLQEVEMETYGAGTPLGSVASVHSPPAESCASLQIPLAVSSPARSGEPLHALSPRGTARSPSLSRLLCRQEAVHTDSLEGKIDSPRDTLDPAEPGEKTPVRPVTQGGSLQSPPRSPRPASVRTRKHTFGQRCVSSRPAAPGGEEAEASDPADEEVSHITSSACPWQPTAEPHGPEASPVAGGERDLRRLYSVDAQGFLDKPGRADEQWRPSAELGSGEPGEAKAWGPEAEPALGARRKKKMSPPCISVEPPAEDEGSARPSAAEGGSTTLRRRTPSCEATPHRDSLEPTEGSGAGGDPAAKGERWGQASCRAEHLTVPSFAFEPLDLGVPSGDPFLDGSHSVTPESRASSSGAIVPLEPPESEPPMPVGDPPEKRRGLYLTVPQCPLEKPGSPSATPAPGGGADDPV
Procedure: as §1, §2, §3, §4, §5, §6, §7, §8, §9, §10, §11, §12, §13, §14

KV1.5 = target: T5, KV1.5 (Homo sapiens, UniProt P22460); experiment: Whole-cell patch clamp on KV1.5 (IKur); type: cell-based; conditions: read-out: Reference compound % inhibition
T5 construct: expressed in transfected cells
T5 sequence (P22460 whole entry): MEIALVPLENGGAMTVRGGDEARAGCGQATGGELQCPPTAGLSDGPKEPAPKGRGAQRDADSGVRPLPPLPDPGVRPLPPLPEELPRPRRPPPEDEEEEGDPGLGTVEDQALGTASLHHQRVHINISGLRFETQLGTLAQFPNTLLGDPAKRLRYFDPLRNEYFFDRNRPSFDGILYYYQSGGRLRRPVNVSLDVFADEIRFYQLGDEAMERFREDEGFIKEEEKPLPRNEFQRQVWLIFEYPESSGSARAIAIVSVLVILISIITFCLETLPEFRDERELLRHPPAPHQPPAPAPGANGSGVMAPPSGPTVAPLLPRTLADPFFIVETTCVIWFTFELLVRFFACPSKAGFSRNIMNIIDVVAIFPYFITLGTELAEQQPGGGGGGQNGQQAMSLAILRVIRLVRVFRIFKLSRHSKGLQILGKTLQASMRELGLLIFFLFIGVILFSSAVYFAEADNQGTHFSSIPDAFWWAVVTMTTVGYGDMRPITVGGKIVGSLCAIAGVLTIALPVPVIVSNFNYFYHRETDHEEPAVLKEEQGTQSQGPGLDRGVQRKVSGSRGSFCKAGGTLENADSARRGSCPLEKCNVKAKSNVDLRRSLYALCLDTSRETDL
Procedure: as §1, §2, §3, §4, §5, §6, §7, §8, §9, §10, §11, §12, §13, §14

[1] = tested on: methoxamine‐sensitized rabbits; experiment: in vivo; design: species or system rabbit; conditions: clofilium 20.5 μg·kg^−1·min^−1
Procedure: All the other experimental groups were 100% female.
The anaesthetized methoxamine‐sensitized rabbit model of TdP is frequently used to study torsadogenic potential of drugs (Carlsson et al., 1990). Briefly, female animals were pre‐sensitized with i.v. infusion of methoxamine, an α1‐adrenoceptor agonist, delivered at 15 μg·kg^−1·min^−1 (6 mL·h^−1) over 70 min.

anaesthetized rabbits = tested on: anaesthetized rabbits
Procedure: All the other experimental groups were 100% female. Animals were anaesthetized with sodium pentobarbital (45–60 mg·kg^−1 i.v.), maintained on a heated pad and mechanically ventilated with room air. […] A fluid‐filled catheter was inserted into the carotid artery to measure systemic arterial blood pressure and for blood sampling. A venous catheter was implanted into the jugular vein for infusion of drugs. Standard surface ECG leads I, II and III were monitored continuously to measure ECG intervals and the occurrence of ventricular tachyarrhythmia. Measurements of arterial blood pressures were calculated over 30 s duration at baseline and every 5 min. […] Then, for all determinations, the means of 10–30 consecutive sinus beats were automatically calculated at each time point (i.e. at the end of the stabilization period and then every 5 until 60 min after starting drug infusion) or until the occurrence of premature ventricular beats. Parameters recorded were systolic, diastolic and mean arterial blood pressure (mmHg), heart rate (beats·min^‐1 calculated from RR interval) as well as PR, QRS and QT/QTU intervals (ms), amplitudes of T‐wave and U‐wave (mV) and rhythm disturbances retrieved from ECG signals. […] Arrhythmia were scored according to the following scale: 0 being no arrhythmia, 1 being premature beats, 2 being auriculo‐ventricular blocks, 3 being ventricular tachycardia and 4 being TdP; and scores correspond to the average of maximal life‐threatening arrhythmias recorded during the experiment. […] Haemodynamic and ECG recordings were monitored continuously over 60 min following the start of infusion.

hERG = tested on: hERG; design: method as in Jonker et al., 2005; conditions: simulation study; 95% CI: 12–32 ms; ref Jonker et al., 2005; cited from earlier work
rabbit Purkinje fibres = experiment: Dofetilide-induced early after-depolarizations and triggered activity in rabbit Purkinje fibres; type: cell-based
Procedure: Following a lethal dose of pentobarbital, the hearts of male New Zealand rabbits were immediately excised and immersed in a modified Tyrode solution maintained at room temperature and previously saturated with O2/CO2 (95%/5%). A piece of ventricle containing free running Purkinje fibres was fixed to the silastic bottom of an organ bath perfused with the same solution maintained at 37°C for 30 min. The preparation was then superfused with the modified Tyrode solution and stimulated for 30 min at 2 Hz and then at 1 Hz (2 ms stimulus at twice threshold). […] After a stabilization period of at least 1 h, action potentials typical for Purkinje fibres were recorded. Action potential reproducibility and stability were confirmed during a further 20 min stabilization period. […] Each was applied for 20 min to enable steady state to be reached. In addition, the emergence of early after‐depolarizations (EADs), favoured by calcium loading during the late phase 2 of the prolonged action potential, is recognized as a better marker of pro‐arrhythmic potential than APD prolongation alone.

hERG channel [2] = conditions: cited from earlier work
fast INa = conditions: read-out: IC50 for fast INa; ref Gao et al., 2013; cited from earlier work
[3] = in vivo; cited from earlier work
late INa [4] = conditions: read-out: IC50 for late INa; ref Gao et al., 2013; cited from earlier work
canine Purkinje fibres = tested on: canine Purkinje fibres; design: method as in Fazekas et al., 1998; conditions: mexiletine (10 mM) added after erythromycin, ref Fazekas et al., 1998; cited from earlier work
late INa [5] = conditions: at clinical Cmax; ref Vicente et al., 2015; cited from earlier work
late INa current = tested on: late INa current; design: method as in Obejero‐Paz et al., 2015; conditions: ref Obejero‐Paz et al., 2015; cited from earlier work
hERG channel [6] = conditions: cited from earlier work; remark: listed apart in the source

For `CN(C)[C@@H](CCOc1cccc2ccccc12)c1ccccc1` [Dapoxetine, reference compound], which inhibition at 30 µM (KV4.3) is on record?
The inhibition at 30 µM was 74%.

Which “block of late sodium current” value (late sodium current) does the source give for `CCN(CC)CC(=O)Nc1c(C)cccc1C` [Lidocaine] here?
Its value is “about 20%”.

Which “Reference compound % inhibition” value (Kir2.1) does the source give for `COc1ccc(CNCc2cccc3ccccc23)cc1` [ML 133, reference compound] here?
The value was “ML 133 (10 μM): 96%”.

Which inhibition at 10 µM (KV7.1/mink) does the source give for `OC(c1cc(C(F)(F)F)nc2c(C(F)(F)F)cccc12)C1CCCCN1` (centres unmarked) [Mefloquine, reference compound] here?
Its inhibition at 10 µM is 61%.

Which inhibition at 1 µM (CaV3.2) does the source give for `COCC(=O)O[C@]1(CCN(C)CCCc2nc3ccccc3[nH]2)CCc2cc(F)ccc2[C@@H]1C(C)C` [Mibefradil, reference compound] here?
Its inhibition at 1 µM is 83%.

For `CC(C)(C)c1ccc(C(O)CCCN2CCC(C(O)(c3ccccc3)c3ccccc3)CC2)cc1` (centres unmarked) [Terfenadine, reference compound], which inhibition at 10 µM (KV1.5) is on record?
Its inhibition at 10 µM is 81%.

Which “increase in UTA ratio” value [1] does the source give for `CCCCCCC[N+](CC)(CC)CCCCc1ccc(Cl)cc1` [clofilium, reference compound] here?
The value was 90%.

And the “QTc interval (ms) (mean ± SEM)” value (anaesthetized rabbits; both, rabbit, in vivo)?
Its value is 152 ± 2 ms.

And the “QTc interval (ms) (mean ± SEM)” value (anaesthetized rabbits; both, rabbit, in vivo, 20 min)?
Its value is 157 ± 3 ms.

What about the “QTc interval (ms) (mean ± SEM)” value (anaesthetized rabbits; both, rabbit, in vivo, 30 min) of the same compound?
Its value is 168 ± 5 ms.

And the “QTc interval (ms) (mean ± SEM)” value (anaesthetized rabbits; both, rabbit, in vivo, 40 min)?
The value was 172 ± 8 ms.

What about the “prolongation of QTc interval vs. baseline” value (anaesthetized rabbits; both, rabbit, in vivo, iv, 60 min) of the same compound?
The value was “+13 ± 5%”.

And the TdP occurrence (anaesthetized rabbits; clofilium up to 1 mg·kg^−1, n = 3/4)?
The TdP occurrence was 75%.

And the ventricular tachycardia incidence (anaesthetized rabbits; clofilium up to 1 mg·kg^−1, n = 4/4)?
The ventricular tachycardia incidence was 100%.

With `CN(CCOc1ccc(NS(C)(=O)=O)cc1)CCc1ccc(NS(C)(=O)=O)cc1` [dofetilide, reference compound] as the compound, how does the “QT prolongation corresponding to a 10% hERG blockade” value (hERG) read?
The value was 20 ms.

What about the “induction of EADs or triggered activity” value (rabbit Purkinje fibres; 0.1 μM) of the same compound?
Its value is “all 10 preparations”.

And the APD90 (rabbit Purkinje fibres; dofetilide 0.1 μM for 35 min, 0.25 Hz, trace of Figure 3B)?
Its APD90 is 593 ms.

Which IC50 (hERG channel [2]) does the source give for `Cc1cccc(C)c1OCC(C)N` (centres unmarked) [mexiletine] here?
The IC50 was 3.7 ± 0.7 µM.

And the “block of late sodium current” value (late sodium current)?
Its value is “about 20%”.

And the IC50 (fast INa)?
The IC50 was 34.6 ± 2.9 µM.

And the therapeutic concentrations [3]?
The therapeutic concentrations was 3.4 to 9.5 µM.

And the IC50 (late INa [4])?
The IC50 was 17.6 ± 1.9 µM.

What about the “disappearance of erythromycin-induced EADs (preparations)” value (canine Purkinje fibres) of the same compound?
Its value is 7/9.

For `COc1ccccc1OCC(O)CN1CCN(CC(=O)Nc2c(C)cccc2C)CC1` (centres unmarked) [ranolazine], which “block of late INa” value (late INa [5]) is on record?
The value was 21%.

For `Fc1ccc(C(OCCN2CCN(CCCc3ccccc3)CC2)c2ccc(F)cc2)cc1` [vanoxerine], which IC50 (late INa current) is on record?
Its IC50 is 0.0852 µM.
